Here are results for twelve compounds from patent publication US7595320B2, “Hydrazinocarbonyl-thieno[2,3-C]pyrazoles, process for preparing them, compositions containing them and use thereof” (Aventis Pharma S.A., priority 2005, dated 2009).

Structures can show the parent of a compound that is named as a salt.

The target in one data set is T1, Tie2 (Homo sapiens, UniProt Q02763).
T1 construct: amino acids of the intracellular domain 776-1124; made in house; host or cells: baculovirus expression (pFastBacGT vector)
As to the kind of experiment: Tie2 kinase test, phosphorylation of PLC with GST-Tie2. It counts as biochemical. As to conditions: GST-Tie2 intracellular domain 776-1124.

For the next data set, the target named is T2, Aurora2 (Homo sapiens, UniProt O14965).
T2 construct: Aurora2: whole recombinant protein comprising an N-terminal histidine tail; His tag (N); made in house; host or cells: E. coli
T2 sequence (O14965 1-403): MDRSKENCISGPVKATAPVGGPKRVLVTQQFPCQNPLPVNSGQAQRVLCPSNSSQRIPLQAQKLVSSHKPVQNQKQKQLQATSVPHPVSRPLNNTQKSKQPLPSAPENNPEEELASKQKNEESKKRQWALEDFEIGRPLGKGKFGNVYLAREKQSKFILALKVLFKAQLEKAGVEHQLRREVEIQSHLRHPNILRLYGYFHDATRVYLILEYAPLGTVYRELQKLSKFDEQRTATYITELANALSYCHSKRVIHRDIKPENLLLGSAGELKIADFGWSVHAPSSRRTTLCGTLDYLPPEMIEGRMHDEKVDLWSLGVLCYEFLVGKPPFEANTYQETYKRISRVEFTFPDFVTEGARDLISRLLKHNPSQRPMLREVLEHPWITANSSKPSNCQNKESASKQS
As to the kind of experiment: Aurora2 enzymatic test, NuMA phosphorylation with [33P]ATP, Flashplate. Type of data set: biochemical. As to conditions: whole recombinant protein, 1 μM ATP. The gist of the method:
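Full-length His-tagged Aurora2 (E. coli, >82% pure) at 10 nM phosphorylated 500 nM His-NuMA fragment on Ni-chelate Flashplates. Conditions were pH 7.5 Tris buffer with 10 mM MgCl2, 1 μM ATP plus [33P]ATP, 30 min at 37 °C.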

The next data set deals with T3, Aurora1 (Homo sapiens, UniProt Q96GD4).
T3 construct: His tag (N); made in house
The data set is described as follows: Aurora1 enzymatic test, NuMA phosphorylation with [33P]ATP, Flashplate. It counts as biochemical. As to conditions: Aurora-B/INCENP-C3 recombinant complex, 1 μM ATP. The gist of the method:
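Recombinant His-tagged Aurora-B/INCENP-C3 complex (10 nM) phosphorylates 500 nM His-NuMA fragment with 1 µM ATP plus [33P]ATP, 30 minutes at 37° C in Tris pH 7.5 with 5 mM MgCl2, on nickel-chelate Flashplates. Incorporated 33P counted; percent inhibition versus enzyme control after no-enzyme background subtraction.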

In a further data set the target is T4, CDK2/cycline E (Homo sapiens, UniProt P24941).
T4 construct: made in house; host or cells: Sf21 insect cells (baculovirus coinfection)
As to the kind of experiment: CDK2/cyclineE Flashplate test in 96-well format. It counts as biochemical. As to conditions: CDK2/cycline E complex, 1 μM ATP. The gist of the method: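 Recombinant human CDK2/cyclin E (His-tagged cyclin E, coexpressed in Sf21 cells), 20 nM, phosphorylates biotinylated pRb peptide (10 μM) with 1 μM ATP plus [γ-33P]ATP in HEPES pH 7.5, MgCl2, DTT at 30 °C. Inhibitors tested at 10 μM down to 0.014 μM; 33P incorporation read by scintillation on streptavidin plates.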

T3 sequence (Q96GD4 whole entry, species assumed): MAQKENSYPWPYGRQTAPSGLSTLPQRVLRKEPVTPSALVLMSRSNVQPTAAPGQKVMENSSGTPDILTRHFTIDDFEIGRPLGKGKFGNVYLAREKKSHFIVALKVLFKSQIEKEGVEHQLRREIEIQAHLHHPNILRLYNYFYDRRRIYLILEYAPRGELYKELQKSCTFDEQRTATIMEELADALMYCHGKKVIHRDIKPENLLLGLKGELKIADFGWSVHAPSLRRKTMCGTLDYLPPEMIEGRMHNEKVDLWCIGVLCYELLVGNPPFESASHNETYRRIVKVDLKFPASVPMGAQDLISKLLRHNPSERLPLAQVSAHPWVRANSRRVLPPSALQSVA
T3 sequence (Q9NQS7 835-903 partner limits assumed, species assumed): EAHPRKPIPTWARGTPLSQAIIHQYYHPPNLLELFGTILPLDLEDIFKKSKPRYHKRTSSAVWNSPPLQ
T1 sequence (Q02763 776-1124): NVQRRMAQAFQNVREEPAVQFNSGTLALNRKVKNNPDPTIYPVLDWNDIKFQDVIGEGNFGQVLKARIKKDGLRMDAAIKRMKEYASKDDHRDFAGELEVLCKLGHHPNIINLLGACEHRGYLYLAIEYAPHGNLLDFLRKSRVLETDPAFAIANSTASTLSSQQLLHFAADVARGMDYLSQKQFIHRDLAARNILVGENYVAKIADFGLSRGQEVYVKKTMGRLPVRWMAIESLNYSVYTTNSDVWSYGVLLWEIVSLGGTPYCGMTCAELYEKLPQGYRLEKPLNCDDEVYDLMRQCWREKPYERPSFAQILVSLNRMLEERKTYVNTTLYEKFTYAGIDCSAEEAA

On to `CN(NC(=O)c1cc2c(NC(=O)c3ccc(Br)cc3)n[nH]c2s1)c1ccccc1` [Example 9, 4-bromo-N-[5-(N′-methyl-N′-phenylhydrazinocarbonyl)-1H-thieno[2,3-c]pyrazol-3-yl]benzamide], for which the melting point stood at 172 °C. Also, the IC50 against Tie2 was determined as 0.82 µM. On Aurora2, the IC50 is 0.157 µM. Besides, on Aurora1, the IC50 came out at 0.131 µM. Also, 0.065 µM corresponded to half-maximal inhibition on CDK2/cycline E (IC50).

In turn, `CN1CCCN(Cc2ccc(C(=O)Nc3n[nH]c4sc(C(=O)NN(C)c5ccc(Cl)cc5)cc34)cc2)CC1` (as salt: salt) [Example 12b, 4-(4-methylperhydro-1,4-diazepin-1-ylmethyl)-N-[5-(N′-(4-chlorophenyl)-N′-methylhydrazinocarbonyl)-1H-thieno[2,3-c]pyrazol-3-yl]benzamide] came in with a melting point of 162 °C.

Regarding `CN(NC(=O)c1cc2c(NC(=O)c3ccc(CN4CCOCC4)cc3)n[nH]c2s1)c1ccccc1` [Example 8, N-[5-(N′-methyl-N′-phenylhydrazinocarbonyl)-1H-thieno[2,3-c]pyrazol-3-yl]-4-morpholin-4-ylmethylbenzamide], the melting point stood at 242 °C. The compound also registered an IC50 against Tie2 of 0.252 µM. Also, the IC50 on Aurora2 is 0.008 µM. Further, the IC50 on Aurora1 was determined as 0.029 µM. The same compound came in with an IC50 at CDK2/cycline E of 0.134 µM.

For `CN1CCCN(Cc2ccc(C(=O)Nc3n[nH]c4sc(C(=O)NN(C)c5ccccc5)cc34)cc2)CC1` [Example 12a, 4-(4-methylperhydro-1,4-diazepin-1-ylmethyl)-N-[5-(N′-methyl-N′-phenylhydrazinocarbonyl)-1H-thieno[2,3-c]-pyrazol-3-yl]benzamide], the IC50 worked out at 0.564 µM against Tie2, 0.031 µM on Aurora2, 0.128 µM at Aurora1 and 0.126 µM against CDK2/cycline E.

On to `COc1ccc(C(=O)Nc2n[nH]c3sc(C(=O)NNc4ccccn4)cc23)cc1` [Example 27, 4-methoxy-N-[5-(N′-pyrid-2-ylhydrazinocarbonyl)-1H-thieno[2,3-c]pyrazol-3-yl]benzamide], for which the IC50 at Tie2 came to 0.294 µM; at Aurora2, 0.031 µM; on Aurora1, 0.051 µM; against CDK2/cycline E, 0.669 µM.

Turning to `CN(C)CCN(C)Cc1ccc(C(=O)Nc2n[nH]c3sc(C(=O)NN(C)c4ccccc4)cc23)cc1` [Example 20a, 4-{[(2-dimethylaminoethyl)methylamino]methyl}-N-[5-(N′-methyl-N′-phenylhydrazinocarbonyl)-1H-thieno[2,3-c]pyrazol-3-yl]benzamide], the half-inhibitory concentration (IC50) against Tie2 was 0.842 µM; on Aurora2, 0.07 µM; at Aurora1 it was 0.19 µM; against CDK2/cycline E, 0.347 µM.

`CN(Cc1ccc(C(=O)Nc2n[nH]c3sc(C(=O)NN(C)c4ccccc4)cc23)cc1)c1ccccc1` [Example 24, 4-[(methylphenylamino)methyl]-N-[5-(N′-methyl-N′-phenylhydrazinocarbonyl)-1H-thieno[2,3-c]pyrazol-3-yl]benzamide] came in with a melting point of 242 °C. At Tie2, this compound yielded an IC50 of 1.03 µM. Further, the IC50 on Aurora2 is 0.049 µM. Moreover, the IC50 on Aurora1 was determined as 0.288 µM. This compound also returned an IC50 on CDK2/cycline E of 1.49 µM.

With `COC[C@@H]1CCCN1NC(=O)c1cc2c(NC(=O)c3ccc(N4CCN(C)CC4)cc3)n[nH]c2s1` [Example 29, N-(2-methoxymethylpyrrolidin-1-yl)-3-[4-(4-methylpiperazin-1-yl)benzoylamino]-1H-thieno[2,3-c]pyrazole-5-carboxamide], the IC50 turned out to be 0.163 µM on Tie2, 0.011 µM on Aurora2, 0.028 µM on Aurora1 and 0.585 µM against CDK2/cycline E.

`CCN(NC(=O)c1cc2c(NC(=O)c3ccc(N4CCN(C)CC4)cc3)n[nH]c2s1)c1ccccc1C` [Example 39, N-[5-(N′-ethyl-N′-o-tolylhydrazinocarbonyl)-1H-thieno[2,3-c]pyrazol-3-yl]-4-(4-methylpiperazin-1-yl)benzamide]: the IC50 was determined as 0.022 µM on Tie2, 0.027 µM at Aurora2, 0.015 µM at Aurora1 and 0.053 µM against CDK2/cycline E.

Regarding `CN(C)CCN(C)Cc1ccc(C(=O)Nc2n[nH]c3sc(C(=O)NN(C)c4ccc(Cl)cc4)cc23)cc1` [Example 20b, N-{5-[N′-(4-chlorophenyl)-N′-methylhydrazinocarbonyl]-1H-thieno[2,3-c]pyrazol-3-yl}-4-{[(2-dimethylaminoethyl)methylamino]methyl}benzamide], the IC50 against Tie2 came to 0.369 µM; on Aurora2 it was 0.075 µM; at Aurora1, 0.155 µM; against CDK2/cycline E it was 0.109 µM.

For `CCc1ccccc1NNC(=O)c1cc2c(NC(=O)c3ccc(OC)cc3)n[nH]c2s1` [Example 5, N-{5-[N′-(2-ethylphenyl)hydrazinocarbonyl]-1H-thieno[2,3-c]pyrazol-3-yl}-4-methoxybenzamide], the concentration for half-maximal inhibition (IC50) against Tie2 came to 0.075 µM; at Aurora2 it was 0.028 µM; on Aurora1, 0.033 µM; against CDK2/cycline E, 0.664 µM.

Regarding `CN1CCN(c2ccc(C(=O)Nc3n[nH]c4sc(C(=O)NN5CCCCC5)cc34)cc2)CC1` [Example 31, N-(piperidin-1-yl)-3-[4-(4-methylpiperazin-1-yl)benzoylamino]-1H-thieno[2,3-c]pyrazole-5-carboxamide], the IC50 was found to be 3.06 µM at Tie2, 0.026 µM at Aurora2, 0.096 µM on Aurora1 and 0.275 µM against CDK2/cycline E.
